These are literature values, as cited in patent US20240200062A1, “METHODS OF TREATING DUCHENNE MUSCULAR DYSTROPHY USING PEPTIDE-OLIGONUCLEOTIDE CONJUGATES” (PepGen Inc., priority 2021, published 2024).

In this data set the test system is dystrophin. To be noted: in vivo; cited from earlier work.

On to eteplirsen, for which the “levels of dystrophin restoration” value is on record as “approximately 1 % of normal dystrophin levels”.
